Reference: ChEMBL document CHEMBL1125127 (J Med Chem, 1990)
Each block holds one molecule with its values, some of them ahead of it.

What was measured:
Canis familiaris [1] = experiment: Concentration that causes a 20% increase in APD95 (action potential duration at 95% repolarization) from control value in anesthetized dogs; format: functional, Canis lupus familiaris
[2] = molecular target: Adrenergic receptor beta (Canis lupus familiaris); experiment: Tested for beta-receptor binding inhibition from canine ventricular tissue, using [3H]dihydroalprenolol as the radioligand in anesthetized dogs
[3] = molecular target: Beta-1 adrenergic receptor (Canis lupus familiaris); experiment: Tested for beta1-receptor selectivity in canine cardiac tissue in anesthetized dogs
Canis familiaris [4] = experiment: Maximum change in […] from control value in anesthetized dogs; 10 uM.; format: functional, Canis lupus familiaris
[5] = molecular target: T1, Beta-2 adrenergic receptor (Canis lupus familiaris, UniProt P54833); experiment: Beta2-receptor selectivity in canine lung tissue in anesthetized dogs; format: functional
Canis familiaris [6] = experiment: Percent change in FRP from control at active dose 0.3-3 mg/kg administered intravenously
Canis familiaris [7] = experiment: Percent change in blood pressure (BP) from control at active dose 0.3-3 mg/kg administered intraperitoneally in anesthetized dogs; format: functional, Canis lupus familiaris
Canis familiaris [8] = experiment: Concentration at which maximum change in […] was observed from control value in anesthetized dogs; The maximum observed change APD95 from control value and concentration at 30 uM when this occurred; format: functional, Canis lupus familiaris
Canis familiaris [9] = experiment: Percent change in heart rate (HR) from control at active dose 1.0-10 mg/kg administered intraduodenally
Canis familiaris [10] = experiment: Percent change in blood pressure (BP) from control at active dose 1.0-10 mg/kg administered intraperitoneally in anesthetized dogs; format: functional, Canis lupus familiaris
Canis familiaris [11] = experiment: Percent change in FRP from control at active dose 1.0-10 mg/kg administered intraduodenally in anesthetized dogs
Canis familiaris [12] = experiment: Percent change in heart rate (HR) from control at active dose 0.3-3 mg/kg administered intravenously in conscious dogs
Canis familiaris [13] = experiment: Percent change in heart rate (HR) from control at active dose 22-30 mg/kg administered intraduodenally
Canis familiaris [14] = experiment: Percent change in blood pressure (BP) from control at active dose 22-30 mg/kg administered intraperitoneally in anesthetized dogs; format: functional, Canis lupus familiaris
[15] = Ratio of number of active animals to number of treated at dose 22-30 mg/kg administered intraperitoneally in anesthetized dogs; No of animals tested=2; format: functional
Canis familiaris [16] = experiment: Percent change in FRP from control at active dose 22-30 mg/kg administered intraduodenally in anesthetized dogs
[17] = molecular target: Beta adrenergic receptor (Canis familiaris)
Canis familiaris [18] = experiment: Percent change in heart rate (HR) from control at active dose 0.1-3.0 mg/kg administered intravenously in conscious dogs
Canis familiaris [19] = experiment: Percent change in blood pressure (BP) from control at active dose 0.1-3.0 mg/kg administered intraperitoneally in anesthetized dogs; format: functional, Canis lupus familiaris
Canis familiaris [20] = experiment: Percent change in FRP from control at active dose 0.1-3.0 mg/kg administered intravenously
[21] = Ratio of number of active animals to number of treated at dose 30 mg/kg administered intraperitoneally in anesthetized dogs; No of animals tested=2; format: functional; settings: route intraperitoneal
Canis familiaris [22] = experiment: Concentration at which maximum change in […] was observed from control value in anesthetized dogs; The maximum observed change APD95 from control value and concentration at 100 uM when this occurred; format: functional, Canis lupus familiaris
Canis familiaris [23] = experiment: Percent change in blood pressure (BP) from control at active dose 30 mg/kg administered intraperitoneally in anesthetized dogs; format: functional, Canis lupus familiaris; settings: route intraperitoneal
Canis familiaris [24] = experiment: Percent change in FRP from control at active dose 1.0-10 mg/kg administered intraperitoneally; format: functional, Canis lupus familiaris
[25] = Percent change in FRP from control at active dose 30 mg/kg administered intraperitoneally in anesthetized dogs; format: functional; settings: route intraperitoneal
Canis familiaris [26] = experiment: Percent change in heart rate (HR) from control at active dose 30 mg/kg administered intraduodenally; settings: route intraduodenal
Canis familiaris [27] = experiment: Percent change in heart rate (HR) from control at active dose 1.0-10 mg/kg administered intraperitoneally in anesthetized dogs; format: functional, Canis lupus familiaris
[28] = molecular target: T1, Beta-2 adrenergic receptor
Description: Tested for Beta-2 adrenergic receptor selectivity in canine lung tissue in anesthetized dogs

[29] = Ratio of number of active animals to number of treated at dose 1.0-10 mg/kg administered intraperitoneally in PES model in anesthetized dogs; 3/5; format: functional
Canis familiaris [30] = experiment: Percent change in FRP from control at active dose 10 mg/kg administered intraperitoneally in anesthetized dogs; format: functional, Canis lupus familiaris; settings: route intraperitoneal
Canis familiaris [31] = experiment: Percent change in heart rate (HR) from control at active dose 10 mg/kg administered intraduodenally; settings: route intraduodenal
Canis familiaris [32] = experiment: Percent change in blood pressure (BP) from control at active dose 10 mg/kg administered intraperitoneally in anesthetized dogs; format: functional, Canis lupus familiaris; settings: route intraperitoneal
[33] = Ratio of number of active animals to number of treated at dose 10 mg/kg administered intraperitoneally in anesthetized dogs; No of animals tested=2; format: functional; settings: route intraperitoneal
Canis familiaris [34] = experiment: Concentration at which maximum change in […] was observed from control value in anesthetized dogs; The maximum observed change APD95 from control value and concentration at 10 uM when this occurred; format: functional, Canis lupus familiaris
[35] = Ratio of number of active animals to number of treated in anesthetized dogs; No of animals tested=2; format: functional

T1 sequence (P54833 whole entry): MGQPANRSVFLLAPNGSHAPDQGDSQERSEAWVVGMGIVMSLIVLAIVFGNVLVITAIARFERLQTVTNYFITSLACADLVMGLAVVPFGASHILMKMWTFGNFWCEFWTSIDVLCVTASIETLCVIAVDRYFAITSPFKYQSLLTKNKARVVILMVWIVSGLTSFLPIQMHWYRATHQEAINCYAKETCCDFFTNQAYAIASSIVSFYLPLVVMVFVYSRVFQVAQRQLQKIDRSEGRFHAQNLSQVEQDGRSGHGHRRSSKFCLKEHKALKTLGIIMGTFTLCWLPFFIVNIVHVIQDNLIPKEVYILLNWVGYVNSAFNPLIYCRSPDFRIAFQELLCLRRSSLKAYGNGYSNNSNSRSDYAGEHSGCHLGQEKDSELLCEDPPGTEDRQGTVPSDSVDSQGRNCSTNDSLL

Compound: OC(CNCCOc1ccc(-n2ccnc2)cc1)COc1ccccc1 (stereo not drawn)
- C20 APD95 (Canis familiaris [1]): 8.8 µM
- IC50 [2]: 0.04 µM
- IC50 [3]: 40 nM
- Max delta (Canis familiaris [4]): 21%
- IC50 [5]: 0.28 µM

Compound: CS(=O)(=O)Nc1ccc(OC[C@@H](O)CNCCOc2ccc(-n3ccnc3)cc2)cc1 (stereo in doubt; 1) [ERSENTILIDE]
- Change (Canis familiaris [6]): 13%
- Change (Canis familiaris [7]): 3%
- C20 APD95 (Canis familiaris [1]): 0.4 µM
- Max delta (Canis familiaris [8]): 92%
- Change (Canis familiaris [9]): -16%
- Change (Canis familiaris [10]): 3%
- Change (Canis familiaris [11]): 27%
- IC50 [5]: 46.5 µM
- Change (Canis familiaris [12]): 9%

Compound: COc1ccc(OCC(O)CNCCNC(=O)c2ccc(-n3ccnc3)cc2)cc1 (stereo not drawn)
- Change (Canis familiaris [13]): -35%
- C20 (Canis familiaris [1]): 6.6 µM
- Change (Canis familiaris [14]): -1%
- Max delta (Canis familiaris [8]): 47%
- No. effective [15]: 2
- Change (Canis familiaris [16]): 24%
- IC50 [17]: 61.4 µM

Compound: CS(=O)(=O)Nc1ccc(OC[C@@H](O)CNCCOc2ccc(-n3ccnc3)cc2)cc1 (stereo in doubt; (S)-1) [ERSENTILIDE]
- Change (Canis familiaris [18]): -2%
- C20 APD95 (Canis familiaris [1]): 1.8 µM
- Change (Canis familiaris [19]): 4%
- Change (Canis familiaris [20]): 5%
- Max delta (Canis familiaris [8]): 73%
- IC50 [5]: 50 µM

Compound: O=C(NCCNCC(O)COc1cccc2ccccc12)c1ccc(-n2ccnc2)cc1 (stereo not drawn)
- Ratio [21]: 2
- C20 (Canis familiaris [1]): 1.8 µM
- Max delta (Canis familiaris [22]): 57%
- Change (Canis familiaris [23]): 16%
- Change (Canis familiaris [10]): -5%
- Change (Canis familiaris [24]): 6%
- Change [25]: 13%
- Change (Canis familiaris [26]): -15%
- IC50 [17]: 0.42 µM
- Change (Canis familiaris [27]): 24%

Now from value to molecule, other results behind:

- IC50 [28]: 49.3 µM
Compound: Cc1cccc(OCC(O)CN2CCN(c3ccc(NS(C)(=O)=O)cc3)CC2)c1 (stereo not drawn)
- No. effective [29]: 3
- C20 (Canis familiaris [1]): <1 µM
- Change (Canis familiaris [30]): 17%
- Change (Canis familiaris [31]): -21%
- Change (Canis familiaris [10]): -1%
- Change (Canis familiaris [24]): 13%
- Change (Canis familiaris [32]): 13%
- Max delta (Canis familiaris [4]): 55%
- Change (Canis familiaris [27]): 18%

- IC50 [17]: 8.4 µM
Compound: CS(=O)(=O)Nc1ccc(N2CCN(CC(O)COc3cccc4c3CCCC4=O)CC2)cc1 (stereo not drawn)
- C20 (Canis familiaris [1]): 1.9 µM
- Change (Canis familiaris [30]): 12%
- Ratio [33]: 1
- Change (Canis familiaris [31]): -1%
- Max delta (Canis familiaris [34]): 48%
- Change (Canis familiaris [32]): 18%

- IC50 [17]: 2.9 µM
Compound: CS(=O)(=O)Nc1ccc(CNCC(O)COc2ccccc2)cc1 (stereo not drawn)
- C20 (Canis familiaris [1]): <1 µM
- Ratio [35]: 0
- Max delta (Canis familiaris [4]): 40%
